Several values for one entry are separate records, joined by “and”; a condition that tells them apart may be missing. Equal values may be shown once.
System: 616215-338-R-J1-PDC complex spheroids, viability % test/control
Test: Anticancer human tumor 616215-338-R-J1-PDC patient-derived colon adenocarcinoma cell line growth inhibition [CLK]
Conditions: for viability, T/C: stronger effect = lower value
Text: A high-throughput screen of multi-cell type tumor spheroids was designed to identify active combinations of […] and targeted small molecules. Complex spheroids include a stromal component modeled by human endothelial cells (HUVEC) and fibroblasts modeled by human mesenchymal stem cells (MSCs). The concentration ranges selected for each drug and investigational agent were based upon clinically achievable concentrations if the clinical Cmax of the agent was known.
Compounds. The drugs and investigational agents: cirtuvivint (SM08502; NSC835563), CC-671 (NSC850746), vemurafenib (NSC761431), tapotoclax (NSC804041), sotorasib (NSC818433), adagrasib (NSC831453), MRTX-1133 (NSC836407), BAY2416964 (NSC825713), copanlisib (NSC816437), inavolisib (NSC800729), abemaciclib (NSC768073), osimertinib (NSC779217), entinostat (NSC756642), eltanexor (KPT-8602, NSC794443), venetoclax (NSC766270), ceralasertib (NSC777638), bortezomib (NSC756655), olaparib (NSC753686), talazoparib (NSC767125), alisertib (NSC759677), peposertib (NSC802822), gemcitabine (NSC613327), 5-fluorouracil (NSC19893), SN-38 (NSC673596), oxaliplatin (NSC266046), paclitaxel (NSC125973), and doxorubicin (NSC123127), were obtained from the National Cancer Institute (NCI) Developmental Therapeutics Program Chemical Repository. The FDA-approved anticancer drug set is available from the Developmental Therapeutics Program at https://dtp.cancer.gov/organization/dscb/obtaining/available plates.htm. […] The stock solutions were prepared in dimethyl sulfoxide (DMSO, Sigma-Aldrich, St. Louis, MO, cat. D2650), except for the platinum complexes which were prepared in saline (Quality Biological, Gaithersburg, MD, cat. 114-055-101), at 800-fold the tested concentration and stored at -70 degrees C prior to their use. All drugs and investigational agents were tested over a range starting from a high concentration at or near the clinical Cmax and decreasing in half-log increments. If the clinical Cmax for an agent had not been determined, the highest concentration tested was 10 microM.
Cell Culture. All cells were maintained in an incubator at 37 degrees C and 5% CO2 with 95% humidity. The PDC lines were cultured according to standard operating procedures established by the NCI PDMR. Briefly, all PDCs were thawed and cultured in Matrigel-coated flasks prepared with a working solution of 1X Ham's F-12 nutrient mix, without supplementation (Invitrogen, Waltham, MA, cat. 11765054), 100 U/mL penicillin-streptomycin (Invitrogen, cat. 15140122), and 2.5% Matrigel (Corning Inc., Corning, NY, cat. 354248) for the first three passages. The 947758-054-R-J2-PDC line was cultured in 6B/Colon 1A media, which includes advanced DMEM/F-12 (Thermo Fisher Scientific, cat. 12634028), 10 mM HEPES (Thermo Fisher Scientific, cat. 15630080), 1X GlutaMAX supplement (Thermo Fisher Scientific, cat. 35050061), 0.1 mg/mL primocin (InvivoGen, cat. ant-pm-2), 10% defined fetal bovine serum, heat inactivated (HyClone Laboratories Inc., cat. SH30070.03HI), 1.25 mM N-Acetyl-L-cysteine (Sigma-Aldrich, cat. A9165), 10 mM nicotinamide (Sigma-Aldrich, cat. N0636), 1X B-27 supplement (Thermo Fisher Scientific, cat. 17504044), 1X N-2 supplement (Thermo Fisher Scientific, cat. 17502048), and 10 microM Y-27632 dihydrochloride (Tocris Bioscience, cat. 1254). The 876862-298-R-J1-PDC was cultured in 6E media, which includes all 6B/Colon 1A media components plus 50% L-WRN conditioned media (ATCC, cat. CRL-3276), 50 ng/mL recombinant human EGF recombinant protein (hEGF; Thermo Fisher Scientific, cat. PHG0311), 10 ng/mL recombinant human fibroblast growth factor 10 (hGFG-10; PeproTech, cat. 100-26), 1 ng/mL recombinant human fibroblast growth factor 2 (hFGF-2; PeproTech, cat. 100-18B), and 1 µM prostaglandin E2 (PGE2; Tocris, cat. 2296). The 227483-062-R1-J1-PDC line was cultured in Panc media, containing all 6E components except hFGF-2, with the addition of 500 nM SB-431542 (Selleckchem, cat. S1067) and 10 nM gastrin (Tocris, cat. 3006). […]

[1] = curve of first compound, second compound 0.0316 µM
[2] = curve of first compound, second compound 0.1 µM
[3] = curve of first compound, second compound 0.316 µM
[4] = curve of first compound, second compound 1 µM
[5] = curve of first compound, second compound 3.16 µM
[6] = curve of first compound, second compound 10 µM
[7] = second compound 0.0316 µM, first compound 0.0316 µM
[8] = second compound 0.0316 µM, first compound 0.1 µM
[9] = second compound 0.0316 µM, first compound 0.316 µM
[10] = second compound 0.0316 µM, first compound 1 µM
[11] = second compound 0.0316 µM, first compound 3.16 µM
[12] = second compound 0.0316 µM, first compound 10 µM
[13] = second compound 0.1 µM, first compound 0.0316 µM
[14] = second compound 0.1 µM, first compound 0.1 µM
[15] = second compound 0.1 µM, first compound 0.316 µM
[16] = second compound 0.1 µM, first compound 1 µM
[17] = second compound 0.1 µM, first compound 3.16 µM
[18] = second compound 0.1 µM, first compound 10 µM
[19] = second compound 0.316 µM, first compound 0.0316 µM
[20] = second compound 0.316 µM, first compound 0.1 µM
[21] = second compound 0.316 µM, first compound 0.316 µM
[22] = second compound 0.316 µM, first compound 1 µM
[23] = second compound 0.316 µM, first compound 3.16 µM
[24] = second compound 0.316 µM, first compound 10 µM
[25] = second compound 1 µM, first compound 0.0316 µM
[26] = second compound 1 µM, first compound 0.1 µM
[27] = second compound 1 µM, first compound 0.316 µM
[28] = second compound 1 µM, first compound 1 µM
[29] = second compound 1 µM, first compound 3.16 µM
[30] = second compound 1 µM, first compound 10 µM
[31] = second compound 3.16 µM, first compound 0.0316 µM
[32] = second compound 3.16 µM, first compound 0.1 µM
[33] = second compound 3.16 µM, first compound 0.316 µM
[34] = second compound 3.16 µM, first compound 1 µM
[35] = second compound 3.16 µM, first compound 3.16 µM
[36] = second compound 3.16 µM, first compound 10 µM
[37] = second compound 10 µM, first compound 0.0316 µM
[38] = second compound 10 µM, first compound 0.1 µM
[39] = second compound 10 µM, first compound 0.316 µM
[40] = second compound 10 µM, first compound 1 µM
[41] = second compound 10 µM, first compound 3.16 µM
[42] = second compound 10 µM, first compound 10 µM
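Further: spheroids exposed to agents for 7 days.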
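Wherever viability, T/C is given: 100% = DMSO vehicle wells.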

With `CN1CCN(c2cc(C(=O)Nc3cc4cc(-c5cnn(C)c5)ccc4cn3)ccn2)CC1` the viability, T/C (compound 0.0316 µM) was 99.7% [middle of 12 runs], the viability, T/C (compound 0.1 µM) was 107% [middle of 12 runs] and the viability, T/C (compound 0.316 µM) was 34.7% [middle of 12 runs]. For the same compound, the viability, T/C (compound 1 µM) was 1.63% [middle of 11 runs], the viability, T/C (compound 3.16 µM) was 1% [middle of 11 runs] and the viability, T/C (compound 10 µM) was 0.25% [middle of 10 runs]. For the same compound, the IC50 (compound alone, run of 07/31/2023) was 238 nM [middle of 11 runs].

In the case of `COc1ccc([C@@H](O)c2cc(-c3ncnc4cc(N5CCOCC5)ccc34)c(F)cc2Cl)nn1` + CNC(=O)c1ccc(Nc2nc(OC3CCCC3)c3c(-c4ccc5nc(C)oc5c4)c[nH]c3n2)c(OC)c1, the IC50 [1] is reported as > 10000 nM, the IC50 [2] is reported as < 31.6 nM and the IC50 [3] is reported as < 31.6 nM. For the same compound, the IC50 [4] was < 31.6 nM, the IC50 [5] was < 31.6 nM and the IC50 [6] was < 31.6 nM. For the same compound, the viability, T/C [7] was 90.8%, the viability, T/C [8] was 103% and the viability, T/C [9] was 99.1%. For the same compound, the viability, T/C [10] was 100%, the viability, T/C [11] was 114% and the viability, T/C [12] was 72.5%. For the same compound, the viability, T/C [13] was 45.1%, the viability, T/C [14] was 45.4% and the viability, T/C [15] was 43.4%. For the same compound, the viability, T/C [16] was 45.3%, the viability, T/C [17] was 43.2% and the viability, T/C [18] was 28.8%. It also gave a viability, T/C [19] of 46.3%, a viability, T/C [20] of 43.5% and a viability, T/C [21] of 39.4%. It also gave a viability, T/C [22] of 37.9%, a viability, T/C [23] of 32.4% and a viability, T/C [24] of 28%. For the same compound, the viability, T/C [25] was 40.1%, the viability, T/C [26] was 39.9% and the viability, T/C [27] was 38.9%. It also gave a viability, T/C [28] of 38.8%, a viability, T/C [29] of 32.2% and a viability, T/C [30] of 22.6%. For the same compound, the viability, T/C [31] was 49.7%, the viability, T/C [32] was 43.7% and the viability, T/C [33] was 41%. The viability, T/C [34] was 32.6%, the viability, T/C [35] was 30.6% and the viability, T/C [36] was 20.8%. It also gave a viability, T/C [37] of 49.1%, a viability, T/C [38] of 41.5% and a viability, T/C [39] of 38.8%. It also gave a viability, T/C [40] of 37.1%, a viability, T/C [41] of 27.2% and a viability, T/C [42] of 19.1%.

With `CC(C)CC(NC(=O)C(Cc1ccccc1)NC(=O)c1cnccn1)B(O)O` (stereo not drawn) the viability, T/C (compound 0.000949 µM) was 109% and 107%, the viability, T/C (compound 0.003 µM) was 109% and 97.9% and the viability, T/C (compound 0.00949 µM) was 0.2% and 0.21%. The viability, T/C (compound 0.03 µM) was 0.18% and 0.25%, the viability, T/C (compound 0.0949 µM) was 0.12% and 0.23% and the viability, T/C (compound 0.3 µM) was 0.85% and 0.21%. For the same compound, the IC50 (curve of compound) was 5.61 nM and 5.28 nM.

With `O=c1[nH]cc(F)c(=O)[nH]1` + CN1CCN(c2cc(C(=O)Nc3cc4cc(-c5cnn(C)c5)ccc4cn3)ccn2)CC1 the IC50 [1] was 796 nM, the IC50 [2] was 692 nM and the IC50 [3] was < 31.6 nM. The IC50 [4] was < 31.6 nM, the IC50 [5] was < 31.6 nM and the IC50 [6] was < 31.6 nM. The viability, T/C [7] was 98.6%, the viability, T/C [8] was 119% and the viability, T/C [9] was 64.4%. The viability, T/C [10] was 46.2%, the viability, T/C [11] was 42.4% and the viability, T/C [12] was 50.6%. The viability, T/C [13] was 121%, the viability, T/C [14] was 109% and the viability, T/C [15] was 61.2%. For the same compound, the viability, T/C [16] was 49.6%, the viability, T/C [17] was 38.7% and the viability, T/C [18] was 41.1%. For the same compound, the viability, T/C [19] was 31.9%, the viability, T/C [20] was 34.7% and the viability, T/C [21] was 41.8%. For the same compound, the viability, T/C [22] was 33.3%, the viability, T/C [23] was 29.6% and the viability, T/C [24] was 26.6%. For the same compound, the viability, T/C [25] was 0.14%, the viability, T/C [26] was 1.14% and the viability, T/C [27] was 2.43%. For the same compound, the viability, T/C [28] was 0.08%, the viability, T/C [29] was 2.58% and the viability, T/C [30] was 2.28%. For the same compound, the viability, T/C [31] was 0.08%, the viability, T/C [32] was 0.42% and the viability, T/C [33] was 1.29%. It also gave a viability, T/C [34] of 0.07%, a viability, T/C [35] of 0.09% and a viability, T/C [36] of 0.13%. It also gave a viability, T/C [37] of 0.07%, a viability, T/C [38] of 1.38% and a viability, T/C [39] of 4.56%. The viability, T/C [40] was 0.1%, the viability, T/C [41] was 2.34% and the viability, T/C [42] was 0.19%.

Reference: PubChem BioAssay AID2060610 (Molecular Pharmacology Branch, DTP, NCI, 2025)
